What was measured:
Assay type in all cases: in vivo, human (pediatric patients)
[1] = Skin safety evaluations: signs and symptoms of skin atrophy; details: for Patients who showed new signs of skin atrophy at Week 2 not present at Baseline: 5/62
Text: (§1) Patients who met the inclusion/exclusion criteria were randomized to receive topical fluocinonide either qd or bid. Patients/guardians were instructed to apply a thin layer of the study product to all treatable areas once or twice daily for 14 days. If the areas to be treated were hairy, patients/guardians were instructed to part the hair to allow direct contact between the study product and the lesion. Patients/guardians were also instructed not to apply study product to lesions of the face, groin, perianal area, and axillae. At the end of Weeks 1, 2, and 4, patients returned to the study site in order for the investigator to perform designated evaluations, review treatment compliance and concomitant therapy, and to collect information regarding adverse events.
Specific skin safety evaluations were performed at each study visit with regard to all treated lesions by noting the presence or absence of the following 8 signs and symptoms of skin atrophy: telangiectasia, transparency, loss of elasticity, loss of normal skin markings, thinning, striae, pigmentation changes, and bruising.

[2] = Treatment-emergent adverse events
Text: as §1
Adverse events were coded using MedDRA terminology (a standard dictionary of terms used to clarify adverse events) and were described according to their intensity, duration and relationship to the study product.

[3] = Efficacy: investigator rating of atopic dermatitis severity; details: for Patients who continued to show an improvement of clear or almost clear compared to Baseline: 2-week follow-up visit
Text: as §1
Efficacy was assessed by observing the change in the severity of atopic dermatitis from Baseline to Week 2 and Week 4. A disease exacerbation requiring more aggressive treatment than previously used was considered an adverse event.
The sole efficacy variable in the study was an investigator rating of skin disease severity performed at Screening, at end of treatment, and at a follow-up visit 4 weeks after the start of study treatment. Fluocinonide administered either qd or bid appears to be effective against atopic dermatitis in children aged 3 months to 17 years. In each of the 4 cohorts of this study, more than 90% of the patients in both the fluocinonide qd and bid group were rated by the investigator as showing an improvement in their disease status or as clear or almost clear of disease at the end of the treatment period. The qd regimen appeared to be as effective as the bid regimen across all age groups.

CC(=O)OCC(=O)[C@@]12OC(C)(C)O[C@@H]1C[C@H]1[C@@H]3C[C@H](F)C4=CC(=O)C=C[C@]4(C)[C@@]3(F)[C@@H](O)C[C@@]12C [Fluocinonide, pregna-1,4-diene-3,20-dione,21-(acetyloxy)-6,9-difluoro-11-hydroxy-16, 17-[(1-methylethylidene)bis(oxy)]-,(6α., 11β,16α)-]
Number (%) of patients who showed new signs at Week 2 not present at Baseline ([1]; Cohort 1 (12-<18), bid): 2 (12.5) Number (%)
Number (%) of patients who showed new signs at Week 2 not present at Baseline ([1]; Cohort 1 (12-<18), qd): 2 (13.3) Number (%)
Number (%) of patients who showed new signs at Week 2 not present at Baseline ([1]; Cohort 2 (6-<12), bid): 1 (6.3) Number (%)
Number (%) of patients who showed new signs at Week 2 not present at Baseline ([1]; Cohort 2 (6-<12), qd): 0 Number (%)
Number (%) of patients who showed new signs at Week 2 not present at Baseline ([1]; Cohort 3 (2-<6), bid): 0 Number (%)
Number (%) of patients who showed new signs at Week 2 not present at Baseline ([1]; Cohort 3 (2-<6), qd): 1 (6.7) Number (%)
Number (%) of patients who showed new signs at Week 2 not present at Baseline ([1]; Cohort 4 (3 months to <2 year), bid): 2 (13.3) Number (%)
Number (%) of patients who showed new signs at Week 2 not present at Baseline ([1]; Cohort 4 (3 months to <2 year), qd): 2 (12.5) Number (%)
Patients who showed new signs of skin atrophy at Week 2 not present at Baseline ([1]; bid treatment group overall): 8.1%
Patients who showed new signs of skin atrophy at Week 2 not present at Baseline ([1]; qd treatment group overall): 8.1%
Burning Sensation NOS ([2]; Cohort 1, bid): 2 (11.8) Number (%)
Dermatitis diaper ([2]; Cohort 1, bid): 0 (0) Number (%)
Folliculitis ([2]; Cohort 1, bid): 1 (5.9) Number (%)
Gastroenteritis NOS ([2]; Cohort 1, bid): 0 (0) Number (%)
Headache ([2]; Cohort 1, bid): 3 (17.6) Number (%)
Pain NOS ([2]; Cohort 1, bid): 2 (11.8) Number (%)
Pyrexia ([2]; Cohort 1, bid): 0 (0) Number (%)
Total no. of patients with AEs ([2]; Cohort 1, bid): 9 (52.9) Number (%)
Upper respiratory tract infection ([2]; Cohort 1, bid): 0 (0) Number (%)
Burning Sensation NOS ([2]; Cohort 1, qd): 0 (0) Number (%)
Dermatitis diaper ([2]; Cohort 1, qd): 0 (0) Number (%)
Folliculitis ([2]; Cohort 1, qd): 2 (12.5) Number (%)
Gastroenteritis NOS ([2]; Cohort 1, qd): 0 (0) Number (%)
Headache ([2]; Cohort 1, qd): 1 (6.3) Number (%)
Pain NOS ([2]; Cohort 1, qd): 0 (0) Number (%)
Pyrexia ([2]; Cohort 1, qd): 0 (0) Number (%)
Total no. of patients with AEs ([2]; Cohort 1, qd): 6 (37.5) Number (%)
Upper respiratory tract infection ([2]; Cohort 1, qd): 0 (0) Number (%)
Burning Sensation NOS ([2]; Cohort 2, bid): 0 (0) Number (%)
Dermatitis diaper ([2]; Cohort 2, bid): 0 (0) Number (%)
Folliculitis ([2]; Cohort 2, bid): 0 (0) Number (%)
Gastroenteritis NOS ([2]; Cohort 2, bid): 0 (0) Number (%)
Headache ([2]; Cohort 2, bid): 0 (0) Number (%)
Pain NOS ([2]; Cohort 2, bid): 0 (0) Number (%)
Pyrexia ([2]; Cohort 2, bid): 0 (0) Number (%)
Total no. of patients with AEs ([2]; Cohort 2, bid): 6 (37.5) Number (%)
Upper respiratory tract infection ([2]; Cohort 2, bid): 1 (6.3) Number (%)
Burning Sensation NOS ([2]; Cohort 2, qd): 0 (0) Number (%)
Dermatitis diaper ([2]; Cohort 2, qd): 0 (0) Number (%)
Folliculitis ([2]; Cohort 2, qd): 1 (6.3) Number (%)
Gastroenteritis NOS ([2]; Cohort 2, qd): 0 (0) Number (%)
Headache ([2]; Cohort 2, qd): 0 (0) Number (%)
Pain NOS ([2]; Cohort 2, qd): 1 (6.3) Number (%)
Pyrexia ([2]; Cohort 2, qd): 0 (0) Number (%)
Total no. of patients with AEs ([2]; Cohort 2, qd): 4 (25.0) Number (%)
Upper respiratory tract infection ([2]; Cohort 2, qd): 0 (0) Number (%)
Burning Sensation NOS ([2]; Cohort 3, bid): 0 (0) Number (%)
Dermatitis diaper ([2]; Cohort 3, bid): 0 (0) Number (%)
Folliculitis ([2]; Cohort 3, bid): 0 (0) Number (%)
Gastroenteritis NOS ([2]; Cohort 3, bid): 0 (0) Number (%)
Headache ([2]; Cohort 3, bid): 0 (0) Number (%)
Pain NOS ([2]; Cohort 3, bid): 0 (0) Number (%)
Pyrexia ([2]; Cohort 3, bid): 0 (0) Number (%)
Total no. of patients with AEs ([2]; Cohort 3, bid): 2 (13.3) Number (%)
Upper respiratory tract infection ([2]; Cohort 3, bid): 0 (0) Number (%)
Burning Sensation NOS ([2]; Cohort 3, qd): 0 (0) Number (%)
Dermatitis diaper ([2]; Cohort 3, qd): 0 (0) Number (%)
Folliculitis ([2]; Cohort 3, qd): 0 (0) Number (%)
Gastroenteritis NOS ([2]; Cohort 3, qd): 0 (0) Number (%)
Headache ([2]; Cohort 3, qd): 0 (0) Number (%)
Pain NOS ([2]; Cohort 3, qd): 0 (0) Number (%)
Pyrexia ([2]; Cohort 3, qd): 0 (0) Number (%)
Total no. of patients with AEs ([2]; Cohort 3, qd): 3 (20) Number (%)
Upper respiratory tract infection ([2]; Cohort 3, qd): 0 (0) Number (%)
Burning Sensation NOS ([2]; Cohort 4, bid): 0 (0) Number (%)
Dermatitis diaper ([2]; Cohort 4, bid): 0 (0) Number (%)
Folliculitis ([2]; Cohort 4, bid): 0 (0) Number (%)
Gastroenteritis NOS ([2]; Cohort 4, bid): 0 (0) Number (%)
Headache ([2]; Cohort 4, bid): 0 (0) Number (%)
Pain NOS ([2]; Cohort 4, bid): 0 (0) Number (%)
Pyrexia ([2]; Cohort 4, bid): 2 (13.3) Number (%)
Total no. of patients with AEs ([2]; Cohort 4, bid): 7 (46.7) Number (%)
Upper respiratory tract infection ([2]; Cohort 4, bid): 1 (6.7) Number (%)
Burning Sensation NOS ([2]; Cohort 4, qd): 0 (0) Number (%)
Dermatitis diaper ([2]; Cohort 4, qd): 2 (12.5) Number (%)
Folliculitis ([2]; Cohort 4, qd): 0 (0) Number (%)
Gastroenteritis NOS ([2]; Cohort 4, qd): 2 (12.5) Number (%)
Headache ([2]; Cohort 4, qd): 0 (0) Number (%)
Pain NOS ([2]; Cohort 4, qd): 0 (0) Number (%)
Pyrexia ([2]; Cohort 4, qd): 2 (12.5) Number (%)
Total no. of patients with AEs ([2]; Cohort 4, qd): 8 (50.0) Number (%)
Upper respiratory tract infection ([2]; Cohort 4, qd): 2 (12.5) Number (%)
Patients who reported at least one treatment-emergent adverse event (TEAE) ([2]; all treated patients, 45 of 126): 35.7%
Deaths or other serious adverse events ([2]; whole study): No deaths or other serious adverse events
Patients who continued to show an improvement of clear or almost clear compared to Baseline ([3]; each dosage group in Cohort 1 and Cohort 3): > 80%
Patients who continued to show an improvement of clear or almost clear compared to Baseline ([3]; each dosage group in Cohort 2): > 70%
Patients who continued to show an improvement of clear or almost clear compared to Baseline ([3]; each dosage group in Cohort 4): > 90%
Patients rated as showing an improvement in disease status or as clear or almost clear of disease ([3]; end of treatment period vs Baseline, Cohort 1 and Cohort 2, bid): > 90%
Patients rated as showing an improvement in disease status or as clear or almost clear of disease ([3]; end of treatment period vs Baseline, Cohort 1 and Cohort 2, qd): all of the patients
Patients rated as showing an improvement in disease status or as clear or almost clear of disease ([3]; end of treatment period, Cohorts 3 and 4, both qd and bid groups): > 90%
Patients rated as showing an improvement in disease status or as clear or almost clear of disease ([3]; end of treatment period, each of the 4 cohorts, both qd and bid group): more than 90%
